Measured values as given in patent US7105572B2, “Stable emulsion compositions” (Takeda Pharmaceutical Company Limited, priority 2000, dated 2006).

Experiments:
[1] = system: nitric oxide concentration (NOx) in blood; test: Effect on increase of nitric oxide concentration (NOx) in blood of LPS-treated mice; assay type: in vivo, BALB/c mice; details: 30 mg/kg orally, 1 hour before LPS 10 mg/kg i.p.; serum 6 hours after LPS; vs control group
IL-1α = test: Effect on increase of cytokine concentration in blood of LPS-treated mice: IL-1α; assay type: in vivo, BALB/c mice; details: 30 mg/kg orally, 1 hour before LPS 10 mg/kg i.p.; serum 6 hours after LPS
Description: (§1) As a result of a defense mechanism against an infection and the like or an immune abnormality, various cytokines are produced in vivo. Accordingly, an experimental animal was used to examine the effect of a test compound on the increase cytokine concentration in blood.
(§2) Female BALB/c mice (6 weeks old) were purchased and acclimatized for 1 week and assigned to the groups in each of which 6 to 8 animals were included. In a treatment group, 30 mg/kg of a test compound suspended in a 0.5% aqueous methyl cellulose solution was given orally. In a control group, the vehicle was given similarly. After 1 hour, LPS (10 mg/kg) was given intraperitoneally to each animal in the treatment and control groups, and the blood was taken 1 hour after the LPS administration and examined for concentrations of TNF-α in the serum. IL-1α, IL-1β and IL-6 concentrations were determined using the serum from the blood taken 6 hours after the LPS administration. Each cytokine was determined using an assay kit manufactured by Amersham.

IL-1β = test: Effect on increase of cytokine concentration in blood of LPS-treated mice: IL-1β; assay type: in vivo, BALB/c mice; details: 30 mg/kg orally, 1 hour before LPS 10 mg/kg i.p.; serum 6 hours after LPS
Description: as §1, §2

TNF-α = test: Effect on increase of cytokine concentration in blood of LPS-treated mice: TNF-α; assay type: in vivo, BALB/c mice; details: 30 mg/kg orally, 1 hour before LPS 10 mg/kg i.p.; serum 1 hour after LPS
Description: as §1, §2

IL-6 = test: Effect on increase of cytokine concentration in blood of LPS-treated mice: IL-6; assay type: in vivo, BALB/c mice; details: 30 mg/kg orally, 1 hour before LPS 10 mg/kg i.p.; serum 6 hours after LPS
Description: as §1, §2

[2] = system: NO production by RAW264.7 cell; test: NO production-inhibiting effect in RAW264.7 cells stimulated with LPS and interferon-gamma; assay type: cell-based, mouse; details: LPS 5 ng/ml + interferon-gamma 1 U/ml, nitrite ion in culture supernatant, compounds 1 and 3: minimum and maximum of 7 and 9 tests
Description: Mouse macrophage cell line RAW264.7 was used as an iNOS-inducible cell and a test compound was examined for its % inhibition of NO production. The test compound was dissolved at the concentration of 10 mM in N,N-dimethylformamide and diluted with an RPMI-1640 medium at the concentration of 0.1 mM. The concentration was further adjusted using the medium, so that a final concentration ranging from 10 μM to 10 nM could be obtained by a 10-fold serial dilution, and the test compound was added to a culture medium. […] at 5×10^5/ml with 10% inactivated fetal calf serum in an RPMI-1640 medium and inoculated to a 96-well plate at 1×10^5 cells/0.2 ml per well. After incubating at 37° C. under an atmosphere of 5% CO2/95% air overnight, the test compound adjusted as described above was added and then LPS and interferon-gamma were added at the final concentrations of 5 ng/ml and 1 U/ml, respectively. […] The nitrite ion concentration was determined by adding 25 μl of 20 μg/ml of 2,3-diaminonaphthalene (DAN) to 50 μl of the culture supernatant, followed by incubating at room temperature for 10 minutes, followed by adding 25 μl of 0.5 N NaOH, followed by determining a fluorescence at 450 nm (excitation wavelength: 365 nm). […]

CCOC(=O)C1=CCCCC1S(=O)(=O)Nc1ccc(Cl)cc1F (centres unmarked) [Compound 1, ethyl 6-[N-(4-chloro-2-fluorophenyl)sulfamoyl]-1-cyclohexene-1-carboxylate]
NOx inhibition (%) in blood [1]: 76% | cytokine inhibition (%) in blood IL-1α (IL-1α): 97% | cytokine inhibition (%) in blood IL-1β (IL-1β): 73% | cytokine inhibition (%) in blood TNF-α (TNF-α): 98% | cytokine inhibition (%) in blood IL-6 (IL-6): 89%

CCOC(=O)C1=CCCCC1S(=O)(=O)Nc1ccc(F)cc1F (centres unmarked) [Compound 3, ethyl 6-[N-(2,4-difluorophenyl)sulfamoyl]-1-cyclohexene-1-carboxylate]
NOx inhibition (%) in blood [1]: 90%

CCOC(=O)C1=CCCCC1S(=O)(=O)Nc1cccc(F)c1 (centres unmarked) [Compound 11, ethyl 6-[N-(3-fluorophenyl)sulfamoyl]-1-cyclohexene-1-carboxylate]
IC50 ([2]; Mus musculus): 0.31 µM

CCOC(=O)C1=CCCCC1S(=O)(=O)Nc1ccc(F)cc1F (stereo not drawn) [Compound 20, d-ethyl 6-[N-(2,4-difluorophenyl)sulfamoyl]-1-cyclohexene-1-carboxylate]
IC50 [2]: 0.005 µM
